Data reported in patent US6630488B1, “Quinolizinones as integrin inhibitors” (Biochem Pharma, Inc., priority 1998, dated 2003).
Where a name gives a salt, the structure may show the parent alone.

Tests used:
GP IIb-IIIa (αIIbβ3) = biological target: T1, GP IIb-IIIa (αIIbβ3) (Homo sapiens, UniProt P05106+P08514); experiment: Fibrinogen binding to immobilized GP IIb-IIIa (αIIbβ3); settings: biotinylated-fibrinogen 10 nM, immobilized GP IIb-IIIa; read-out: IC50 values for the fibrinogen binding assay αIIbβ3
T1 construct: purchased Calbiochem
T1 sequence (P08514 32-887 limits assumed): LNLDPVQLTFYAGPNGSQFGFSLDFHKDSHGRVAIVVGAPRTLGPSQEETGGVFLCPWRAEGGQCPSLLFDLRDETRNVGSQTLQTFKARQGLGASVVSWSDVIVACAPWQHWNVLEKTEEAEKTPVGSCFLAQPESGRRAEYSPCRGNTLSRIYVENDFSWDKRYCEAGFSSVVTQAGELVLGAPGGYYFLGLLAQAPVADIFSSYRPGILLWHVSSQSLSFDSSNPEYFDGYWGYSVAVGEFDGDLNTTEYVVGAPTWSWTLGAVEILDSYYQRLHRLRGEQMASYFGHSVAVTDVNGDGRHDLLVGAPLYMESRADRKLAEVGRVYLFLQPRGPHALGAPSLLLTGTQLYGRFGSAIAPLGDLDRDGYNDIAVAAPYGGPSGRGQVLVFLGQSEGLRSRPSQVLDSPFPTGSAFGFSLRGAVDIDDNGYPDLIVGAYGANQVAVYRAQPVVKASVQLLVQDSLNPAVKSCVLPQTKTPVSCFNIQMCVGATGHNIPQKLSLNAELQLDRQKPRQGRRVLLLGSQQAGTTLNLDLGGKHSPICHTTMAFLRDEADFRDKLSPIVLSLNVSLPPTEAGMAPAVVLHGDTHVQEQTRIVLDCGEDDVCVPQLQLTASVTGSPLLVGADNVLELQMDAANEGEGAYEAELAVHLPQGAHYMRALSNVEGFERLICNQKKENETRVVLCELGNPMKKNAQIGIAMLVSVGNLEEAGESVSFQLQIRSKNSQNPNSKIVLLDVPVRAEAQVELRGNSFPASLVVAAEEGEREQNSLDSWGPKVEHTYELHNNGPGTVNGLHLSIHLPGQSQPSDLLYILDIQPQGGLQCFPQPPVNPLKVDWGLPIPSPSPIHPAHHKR
T1 sequence (P08514 891-1039 partner limits assumed): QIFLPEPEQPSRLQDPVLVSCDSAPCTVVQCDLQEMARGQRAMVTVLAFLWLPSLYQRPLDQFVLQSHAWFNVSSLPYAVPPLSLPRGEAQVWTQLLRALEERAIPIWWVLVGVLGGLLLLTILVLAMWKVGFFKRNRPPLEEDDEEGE
T1 sequence (P05106 27-788): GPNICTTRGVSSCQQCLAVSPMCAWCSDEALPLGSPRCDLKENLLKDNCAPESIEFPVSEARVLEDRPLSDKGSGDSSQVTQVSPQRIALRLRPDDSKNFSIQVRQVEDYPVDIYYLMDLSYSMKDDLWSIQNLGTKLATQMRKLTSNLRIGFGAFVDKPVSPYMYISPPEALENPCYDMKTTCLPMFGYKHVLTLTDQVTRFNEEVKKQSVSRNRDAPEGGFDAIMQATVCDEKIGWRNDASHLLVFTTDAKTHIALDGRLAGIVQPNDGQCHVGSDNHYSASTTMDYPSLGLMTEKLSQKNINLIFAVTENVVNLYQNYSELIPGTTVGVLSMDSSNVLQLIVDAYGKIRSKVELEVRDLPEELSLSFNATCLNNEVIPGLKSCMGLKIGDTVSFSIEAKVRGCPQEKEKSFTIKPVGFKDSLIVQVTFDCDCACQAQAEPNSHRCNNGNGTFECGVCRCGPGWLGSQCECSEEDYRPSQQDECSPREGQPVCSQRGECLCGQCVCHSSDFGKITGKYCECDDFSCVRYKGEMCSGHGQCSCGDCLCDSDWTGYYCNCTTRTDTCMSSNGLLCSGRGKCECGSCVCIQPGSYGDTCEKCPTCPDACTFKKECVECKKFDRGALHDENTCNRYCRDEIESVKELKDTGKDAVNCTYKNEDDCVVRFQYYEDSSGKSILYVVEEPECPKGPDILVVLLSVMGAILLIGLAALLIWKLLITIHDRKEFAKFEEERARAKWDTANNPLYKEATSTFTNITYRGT
Description: (§1) Nonbound fibrinogen was removed by five washes with binding buffer. Avidin conjugated to alkaline phosphatase (Sigma), diluted in binding buffer, was added and incubated for two hours at 37° C. The plates were washed five times with binding buffer, and after addition of the substrate PNPP (Pierce), the enzyme activity was measured by the absorbance at 405 nm.

placental αvβ3 = biological target: T2, placental αvβ3 (Homo sapiens, UniProt P05106+P06756); experiment: Fibrinogen binding to immobilized αvβ3; settings: biotinylated-fibrinogen 10 nM, immobilized placental αvβ3; read-out: IC50 values for the fibrinogen binding assay αvβ3
T2 construct: purified active GP IIb-IIIa (Calbiochem) or olacental αvβ3 at 0.5 μg/ml; from tissue; host or cells: placenta
T2 sequence (P06756 31-889 limits assumed): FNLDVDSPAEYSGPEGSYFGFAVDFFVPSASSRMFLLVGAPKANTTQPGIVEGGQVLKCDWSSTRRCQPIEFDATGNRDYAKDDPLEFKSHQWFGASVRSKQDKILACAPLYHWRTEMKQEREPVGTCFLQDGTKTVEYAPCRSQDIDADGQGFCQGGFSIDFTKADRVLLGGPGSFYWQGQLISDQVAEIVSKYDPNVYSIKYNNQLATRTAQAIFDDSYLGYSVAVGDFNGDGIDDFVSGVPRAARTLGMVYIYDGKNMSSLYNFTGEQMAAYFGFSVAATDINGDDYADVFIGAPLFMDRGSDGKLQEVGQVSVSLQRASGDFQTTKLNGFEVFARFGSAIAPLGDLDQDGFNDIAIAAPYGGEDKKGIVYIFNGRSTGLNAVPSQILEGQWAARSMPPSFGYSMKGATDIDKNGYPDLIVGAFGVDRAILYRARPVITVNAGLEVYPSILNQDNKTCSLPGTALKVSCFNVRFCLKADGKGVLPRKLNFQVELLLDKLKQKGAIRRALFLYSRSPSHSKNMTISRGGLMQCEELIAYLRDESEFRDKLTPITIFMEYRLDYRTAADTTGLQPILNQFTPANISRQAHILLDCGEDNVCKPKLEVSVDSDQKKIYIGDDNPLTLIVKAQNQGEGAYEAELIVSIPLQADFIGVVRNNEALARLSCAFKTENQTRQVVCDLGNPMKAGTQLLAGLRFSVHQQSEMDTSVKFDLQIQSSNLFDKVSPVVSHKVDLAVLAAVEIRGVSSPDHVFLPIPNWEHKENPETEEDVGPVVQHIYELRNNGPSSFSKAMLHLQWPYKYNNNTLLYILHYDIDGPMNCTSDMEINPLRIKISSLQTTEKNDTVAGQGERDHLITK
T2 sequence (P06756 891-1048 partner limits assumed): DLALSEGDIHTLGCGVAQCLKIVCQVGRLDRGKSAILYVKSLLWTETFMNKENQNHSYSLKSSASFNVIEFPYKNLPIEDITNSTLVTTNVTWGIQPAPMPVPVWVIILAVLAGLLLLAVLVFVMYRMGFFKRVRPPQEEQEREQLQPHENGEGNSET
T2 sequence (P05106 27-788): as the sequence (P05106 27-788) above
Description: as §1

SMILES	IC50 (GP IIb-IIIa (αIIbβ3)) [µM]	IC50 (placental αvβ3) [µM]
N=C(N)NCCCOc1ccc2ccc(NC(=O)NC(CC(=O)O)c3cccnc3)c(=O)n2c1 (racemic) [Compound VIII, (+/−)-3-{3-[7-(3-Guanidino-propoxy)-4-oxo-4H-quinolizin-3-yl]-ureido}-3-pyridin-3-yl-propionic Acid]	3.5	1.2
O=C(O)CC(NC(=O)c1ccc2ccc(OCCCNC(=O)OCc3ccccc3)cn2c1=O)c1ccccc1 (racemic) [Compound XI, (+/−)-3-{[7-(3-Benzyloxycarbonylamino-propoxy)-4-oxo-4H-quinolizine-3-carbonyl]-amino}-3-phenyl-propionic Acid]	20	20
N=C(N)NC1CCC(Nc2ccn3c(=O)c(C(=O)NC(CC(=O)O)c4ccccc4)ccc3c2)CC1 (racemic) [Compound XLI, (+/−)-3-{[8-(4-Guanidino-cyclohexylamino)-4-oxo-4H-quinolizine-3-carbonyl]-amino}-3-phenyl-propionic Acid Trifluoroacetic Acid Salt]	0.23	17
N=C(N)NCc1ccc2cc(C(=O)NC(CC(=O)O)c3cc(Cl)cc(Cl)c3)cc(=O)n2c1 (racemic) [Compound XLII, (+/−)-3-(3,5-Dichlorophenyl)-3-((7-guanidinomethyl-4-oxo-4H-quinolizine-2-carbonyl)-amino]-propionic acid trifluoroacetic acid salt]	23	4
N=C(N)NCc1ccc2cc(C(=O)NC(CC(=O)O)c3cccnc3)cc(=O)n2c1 (racemic) [Compound XLIII, (+/−)-3-[(7-guanidinomethyl-4-oxo-4H-quinolizine-2-carbonyl]-amino)-3-pyridin-3-yl-propionic acid bis-trifluoroacetic acid salt]	14.8	0.72
N=C(N)NCc1ccc2cc(C(=O)NCC(Nc3ncccn3)C(=O)O)cc(=O)n2c1 (racemic) [Compound XLIV, (+/−)-3-[(7-guanidinomethyl-4-oxo-4H-quinolizine-2-carbonyl)-amino]-2-(pyrimidin-2-ylamino)-propionic acid bis-trifluoroacetic acid salt]	6	0.03
NCCCCCOc1ccc2ccc(C(=O)NC[C@H](NS(=O)(=O)c3ccccc3)C(=O)O)c(=O)n2c1 [Compound I, (S)-2-Benzenesulfonylamino-3-{[7-(5-aminopentyloxy)-4-oxo-4H-quinolizine-3-carbonyl]-amino}-propionic Acid TFA Salt]	0.058	44
N=C(N)NCCCCCOc1ccc2ccc(C(=O)NC[C@H](NS(=O)(=O)c3ccccc3)C(=O)O)c(=O)n2c1 [Compound II, (S)-2-Benzenesulfonylamino-3-{[7-(5-guanidino-pentyloxy)-4-oxo-4H-quinolizine-3-carbonyl]-amino}-propionic Acid Hydrochloride]	3.9	24
NCCCOc1ccc2ccc(C(=O)NC[C@H](NS(=O)(=O)c3ccccc3)C(=O)O)c(=O)n2c1 [Compound III, (S)-3-{[7-(3-Amino-propoxy)-4-oxo-4H-quinolizine-3-carbonyl]-amino}-2-benzenesulfonylamino-propionic Acid Trifluoroacetic Acid Salt]	0.52	96
N=C(N)NCCCOc1ccc2ccc(C(=O)NC[C@H](NS(=O)(=O)c3ccccc3)C(=O)O)c(=O)n2c1 [Compound IV, (S)-2-Benzenesulfonylamino-3-{[7-(3-guanidino-propoxy)-4-oxo-4H-quinolizine-3-carbonyl]-amino}-propionic Acid Hydrochloride]	0.033	8.7
N=C(N)NCCCOc1ccc2ccc(NC(=O)NC[C@H](NS(=O)(=O)c3ccccc3)C(=O)O)c(=O)n2c1 [Compound IX, (S)-2-Benzenesulfonylamino-3-{3-[7-(3-guanidino-propoxy)-4-oxo-4H-quinolizin-3-yl]-ureido}-propionic Acid Trifluoroacetate Salt]	0.0096	1.3
O=C(NC[C@H](NS(=O)(=O)c1ccccc1)C(=O)O)Nc1ccc2ccc(OCCCNC(=O)OCc3ccccc3)cn2c1=O [Compound VI, (S)-2-Benzenesulfonylamino-3-{3-[7-(3-benzyloxycarbonylamino-propoxy)-4-oxo-4H-quinolizine-3-yl]-ureido}-propionic Acid]	1.8	> 100
NCCCOc1ccc2ccc(NC(=O)NC[C@H](NS(=O)(=O)c3ccccc3)C(=O)O)c(=O)n2c1 [Compound VII, (S)-3-{3-[7-(3-Amino-propoxy)-4-oxo-4H-quinolizin-3-yl]-ureido}-2-Benzenesulfonylamino-propionic Acid]	0.0018	92
CNC(=O)NCCCOc1ccc2cc(C(=O)NC[C@H](NS(=O)(=O)c3ccccc3)C(=O)O)cc(=O)n2c1 [Compound XII, (S)-2-Benzenesulfonylamino-3-({7-[3-(3-methyl-ureido)-propoxy]-4-oxo-4H-quinolizine-2-carbonyl}-amino)-propionic Acid]	0.79	1.1
NCCCOc1ccc2cc(C(=O)O)cc(=O)n2c1 [Compound XIII, 7-(3-Amino-propoxy)-4-oxo-4H-quinolizine-2-carboxylic Acid Trifluoroacetic Acid Salt]	5.3	> 100
NCCCOc1ccc2cc(C(=O)NC[C@H](NS(=O)(=O)c3ccccc3)C(=O)O)cc(=O)n2c1 [Compound XIV, (S)-3-{[7-(3-Amino-propoxy)-4-oxo-4H-quinolizine-2-carbonyl]-amino}-2-benzenesulfonylamino-propionic Acid Trifluoroacetic Acid Salt]	0.00038	17
NCCOc1ccc2cc(C(=O)NC[C@H](NS(=O)(=O)c3ccccc3)C(=O)O)cc(=O)n2c1 [Compound XIX, (S)-3-{[7-(2-Amino-ethoxy)-4-oxo-4H-quinolizine-2-carbonyl]-amino}-2-benzenesulfonylamino-propionic Acid Trifluoroacetic Acid Salt]	0.029	2
O=C(NCc1ccc2cc(C(=O)NC[C@H](NS(=O)(=O)c3ccccc3)C(=O)O)cc(=O)n2c1)OCc1ccccc1 [Compound XLV, (S)-2-Benzenesulfonylamino-3-([(7-benzyloxycarbonylamino-methyl)-4-oxo-4H-quinolizine-2-carbonyl]-amino)-propionic acid]	0.85	0.91

Further lines, results first:

IC50 (GP IIb-IIIa (αIIbβ3)) [µM]	IC50 (placental αvβ3) [µM]	SMILES
0.063	21	CN(CCN(C)c1ccn2c(=O)c(C(=O)NC(CC(=O)O)c3ccccc3)ccc2c1)C(=N)N (racemic) [Compound XXXIX, (+/−)-3-[(8-{Methyl-[2-(N-methyl-guanidino)-ethyl]-amino}-4-oxo-4H-quinolizine-3-carbonyl)-amino]-3-phenyl-propionic Acid Trifluoroacetic Acid Salt]
10	19	NCCNc1ccn2c(=O)c(C(=O)NC(CC(=O)O)c3ccccc3)ccc2c1 (racemic) [Compound XXXVI, (+/−)-3-{[8-(2-Amino-ethylamino)-4-oxo-4H-quinolizine-3-carbonyl]-amino}-3-phenyl-propionic Acid]
0.17	8.2	N=C(N)SCCNc1ccn2c(=O)c(C(=O)NC(CC(=O)O)c3ccccc3)ccc2c1 (racemic) [Compound XXXVII, (+/−)-3-{[8-(2-Carbamimidoylsulfanyl-ethylamino)-4-oxo-4H-quinolizine-3-carbonyl]-amino}-3-phenyl-propionic Acid Trifluoroacetic Acid Salt]
0.045	13	O=C(O)CC(NC(=O)c1ccc2cc(NCCSC(=S)Nc3cccnc3)ccn2c1=O)c1ccccc1 (racemic) [Compound XXXVIII, (+/−)-3-({4-Oxo-8-[2-(pyridin-3-ylthiocarbamoylsulfanyl)-ethylamino]4H-quinolizine-3-carbonyl}-amino)-3-phenyl-propionic acid trifluoroacetic acid salt]
29	67	O=C(O)CC(NC(=O)c1ccc2ccc(OCCCNC(=O)NCc3ccccc3)cn2c1=O)c1ccccc1 (racemic) [Compound X]
0.074	14	NCCCOc1ccc2cc(C(=O)NC[C@H](Nc3ncccn3)C(=O)O)cc(=O)n2c1 (stereo in doubt) [Compound XXI, 3-{[7-(3-Amino-propoxy)-4-oxo-4H-quinolizine-2 carbonyl]-amino}-2-(pyrimidin-2-ylamino)-propionic Acid Hydrochloride]
0.44	0.019	NCc1ccc2cc(C(=O)NC[C@H](NS(=O)(=O)c3ccccc3)C(=O)O)cc(=O)n2c1 (stereo in doubt) [Compound XXVI, 3-[(7-Aminomethyl-4-oxo-4H-quinolizine-2-carbonyl)-amino]-2-benzenesulfonylamino-propionic Acid Trifluoroacetic Acid Salt]
3.5	0.29	O=C(NC[C@H](NS(=O)(=O)c1ccccc1)C(=O)O)c1cc(=O)n2cc(CNc3ncccn3)ccc2c1 [Compound XLVI, (S)-2-Benzenesulfonylamino-3-([4-oxo-7-(pyrimidin-2-ylaminomethyl)-4H-quinolizine-2-carbonyl]-amino)-propionic acid trifluoroacetic acid salt]
4.85	0.006	O=C(NCc1ccccc1)NCc1ccc2cc(C(=O)NC[C@H](NS(=O)(=O)c3ccccc3)C(=O)O)cc(=O)n2c1 [Compound XLVII, (S)-2-Benzenesulfonylamino-3-{[7-(3-benzyl-ureidomethyl)-4-oxo-4H-quinolizine-2-carbonyl]-amino}-propionic acid]
